From the supplement of paper PMC10307832

What was measured:
Assay in all cases: relative viability (nuclei count vs DMSO), 5 days (fraction); higher = more cells survive
Dasatinib + Lapatinib = compound: Cc1nc(Nc2ncc(C(=O)Nc3c(C)cccc3Cl)s2)cc(N2CCN(CCO)CC2)n1 [Dasatinib] + CS(=O)(=O)CCNCc1ccc(-c2ccc3ncnc(Nc4ccc(OCc5cccc(F)c5)c(Cl)c4)c3c2)o1 [Lapatinib] (partner 2 µM)
In short: (§1)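 Relative viability was taken as the ratio of nuclei in treated wells to nuclei in vehicle wells. Lung cancer cell lines in 1536-well plates received compounds by pin tool one day after seeding, either one drug alone or a fixed anchor-drug dose plus five library-drug doses (not always all listed) in √10 steps. Nuclei were counted on 4× images after 5 days of treatment, and values are medians of duplicate plates.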

ALW-II-49-7 + Pemetrexed = compound: Cc1ccc(C(=O)Nc2cccc(C(F)(F)F)c2)cc1Nc1cncc(C(N)=O)c1 [ALW-II-49-7] + Nc1nc2[nH]cc(CCc3ccc(C(=O)N[C@@H](CCC(=O)O)C(=O)O)cc3)c2c(=O)[nH]1 [Pemetrexed] (partner 0.2 µM)
In short: as §1

Dasatinib + Pemetrexed = compound: Cc1nc(Nc2ncc(C(=O)Nc3c(C)cccc3Cl)s2)cc(N2CCN(CCO)CC2)n1 [Dasatinib] + Nc1nc2[nH]cc(CCc3ccc(C(=O)N[C@@H](CCC(=O)O)C(=O)O)cc3)c2c(=O)[nH]1 [Pemetrexed] (partner 0.2 µM)
In short: as §1

XMD13-2 + Lapatinib = compound: C1CC1C(=O)NC2=NNC3=C2C=CC(=C3)C4=CC(=CC=C4)C(=O)NC5CC5 [XMD13-2] + CS(=O)(=O)CCNCc1ccc(-c2ccc3ncnc(Nc4ccc(OCc5cccc(F)c5)c(Cl)c4)c3c2)o1 [Lapatinib] (partner 2 µM)
In short: as §1

| Cell Line | relative viability (Dasatinib + Lapatinib; first compound 0.005 µM) | relative viability (Dasatinib + Lapatinib; first compound 0.01581 µM) | relative viability (Dasatinib + Lapatinib; first compound 0.05 µM) | relative viability (Dasatinib + Lapatinib; first compound 0.1581 µM) | relative viability (Dasatinib + Lapatinib; first compound 0.5 µM) | relative viability (ALW-II-49-7 + Pemetrexed; first compound 0.08 µM) | relative viability (ALW-II-49-7 + Pemetrexed; first compound 0.253 µM) | relative viability (ALW-II-49-7 + Pemetrexed; first compound 0.8 µM) | relative viability (ALW-II-49-7 + Pemetrexed; first compound 2.53 µM) | relative viability (ALW-II-49-7 + Pemetrexed; first compound 8 µM) | relative viability (Dasatinib + Pemetrexed; first compound 0.005 µM) | relative viability (Dasatinib + Pemetrexed; first compound 0.01581 µM) | relative viability (Dasatinib + Pemetrexed; first compound 0.05 µM) | relative viability (Dasatinib + Pemetrexed; first compound 0.1581 µM) | relative viability (Dasatinib + Pemetrexed; first compound 0.5 µM) | relative viability (XMD13-2 + Lapatinib; first compound 0.05 µM) | relative viability (XMD13-2 + Lapatinib; first compound 0.1581 µM) | relative viability (XMD13-2 + Lapatinib; first compound 0.5 µM) | relative viability (XMD13-2 + Lapatinib; first compound 1.581 µM) | relative viability (XMD13-2 + Lapatinib; first compound 5 µM) |
| --- | --- | --- | --- | --- | --- | --- | --- | --- | --- | --- | --- | --- | --- | --- | --- | --- | --- | --- | --- | --- |
| 201T | 0.931 | 0.81 | 0.924 | 0.875 | 0.486 | 0.321 | 0.365 | 0.287 | 0.346 | 0.381 | 0.404 | 0.332 | 0.31 | 0.292 | 0.268 | 1.06 | 1.13 | 1.02 | 1.07 | 1.08 |
| A549 | 0.955 | 0.824 | 0.83 | 0.673 | 0.194 |  |  |  |  |  |  |  |  |  |  | 1.2 | 0.974 | 0.938 | 0.811 | 0.891 |
| A-427 | 0.89 | 1.06 | 0.893 | 0.646 | 0.551 | 0.982 | 1.11 | 0.926 | 1.02 | 1.06 | 0.972 | 0.832 | 0.807 | 0.556 | 0.619 | 1.1 | 1.01 | 1.1 | 1.01 | 1.05 |
| ABC-1 | 0.993 | 0.896 | 1.38 | 0.872 | 0.693 |  |  |  |  |  |  |  |  |  |  | 1.42 | 1.29 | 1.12 | 1.2 | 1.23 |
| BEN | 0.617 | 0.362 | 0.432 | 0.312 | 0.336 | 0.8 | 0.88 | 0.757 | 0.902 | 0.81 | 0.596 | 0.572 | 0.511 | 0.478 | 0.448 | 0.954 | 0.829 | 0.802 | 0.597 | 0.621 |
| CAL-12T | 0.624 | 0.551 | 0.597 | 0.252 | 0.172 | 1.16 | 1.3 | 1.27 | 1.25 | 0.749 | 1.23 | 1.2 | 1.27 | 0.929 | 0.479 | 0.627 |  | 0.795 | 0.537 | 0.46 |
| COR-L23 | 0.983 | 0.853 | 0.955 | 0.74 | 0.737 | 0.198 | 0.208 | 0.206 | 0.204 | 0.177 | 0.211 | 0.196 | 0.19 | 0.19 | 0.18 | 1.26 | 1.09 | 0.929 | 1.08 | 0.91 |
| COR-L 105 | 0.352 | 0.301 | 0.28 | 0.256 | 0.318 | 1.16 | 1.06 | 1.21 | 0.959 | 0.974 | 0.869 | 1.1 | 0.783 | 0.605 | 0.361 | 0.395 | 0.319 | 0.426 | 0.346 | 0.27 |
| Calu-6 | 0.924 | 0.776 | 0.848 | 0.642 | 0.59 |  |  |  |  |  |  |  |  |  |  | 1.18 | 0.93 | 1.11 | 0.983 | 0.736 |
| ChaGo-K-1 |  |  |  |  |  | 0.266 | 0.274 | 0.263 | 0.268 | 0.262 | 0.256 | 0.255 | 0.254 | 0.244 | 0.235 |  |  |  |  |  |
